Columns and labels:
SETVI [1] = experiment: Pre-emergence action against SETVI; assay type: in vivo, Setaria viridis; settings: pre-emergence, dosage 320 g/ha, scored visually after 3 weeks vs untreated controls
In short: (§1)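 Seeds sown in sandy loam in wood-fiber pots and covered with soil. Greenhouse growth; visual damage scored after 3 weeks versus untreated controls (100% = dead, 0% = like control).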

VERPE [2] = experiment: Pre-emergence action against VERPE; assay type: in vivo, Veronica persica; settings: Dosage 320 g/ha, pre-emergence
In short: as §1

POLCO = experiment: Post-emergence action against POLCO; assay type: in vivo, Polygonum convolvulus; settings: post-emergence, dosage 80 g/ha
In short: (§2)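 Weeds grown in sandy loam in greenhouse, treated at one-leaf stage (2–3 weeks after sowing) with WP or EC formulations sprayed as aqueous suspension/emulsion at 600 to […] water with 0.2% wetting agent. Visual rating after about 3 weeks versus untreated controls, as % herbicidal action (100% = plants dead, 0% = like control).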

MATIN [3] = experiment: Post-emergence action against MATIN; assay type: in vivo, Matricaria inodora; settings: post-emergence, dosage 80 g/ha, visual assessment about 3 weeks after treatment vs untreated controls
In short: as §2

MATIN [4] = experiment: Pre-emergence action against MATIN; assay type: in vivo, Matricaria inodora; settings: Dosage 320 g/ha, pre-emergence
In short: as §1

ABUTH [5] = experiment: Post-emergence action against ABUTH; assay type: in vivo, Abutilon theophrasti; settings: post-emergence, dosage 80 g/ha, visual assessment about 3 weeks after treatment vs untreated controls
In short: as §2

STEME [6] = experiment: Post-emergence action against STEME; assay type: in vivo, Stellaria media; settings: post-emergence, dosage 80 g/ha
In short: as §2

AMARE [7] = experiment: Pre-emergence action against AMARE; assay type: in vivo, Amaranthus retroflexus; settings: pre-emergence, dosage 320 g/ha, scored visually after 3 weeks vs untreated controls
In short: as §1

DIGSA [8] = experiment: Pre-emergence action against DIGSA; assay type: in vivo, Digitaria sanguinalis; settings: dosage 320 g/ha, scored visually after 3 weeks vs untreated controls
Source text: Seeds of monocotyledonous and dicotyledonous weed plants and crop plants are laid out in sandy loam soil in wood-fiber pots and covered with soil. The compounds of the invention, formulated in the form of wettable powders (WP) or as emulsion concentrates (EC), are then applied to the surface of the covering soil in the form of an aqueous suspension or emulsion at a water application rate equating to […], with addition of 0.2% wetting agent. After the treatment, the pots are placed in a greenhouse and kept under good growth conditions for the trial plants. The damage to the test plants is scored visually after a test period of 3 weeks by comparison with untreated controls (herbicidal activity in percent (%): 100% activity=the plants have died, 0% activity=like control plants).

ECHCG [9] = experiment: Post-emergence action against ECHCG; assay type: in vivo, Echinochloa crus-galli; settings: post-emergence, dosage 80 g/ha, visual assessment about 3 weeks after treatment vs untreated controls
In short: as §2

ABUTH [10] = experiment: Pre-emergence action against ABUTH; assay type: in vivo, Abutilon theophrasti; settings: pre-emergence, dosage 320 g/ha, scored visually after 3 weeks vs untreated controls
In short: as §1

PHBPU [11] = experiment: Post-emergence action against PHBPU; assay type: in vivo, Pharbitis purpurea; settings: post-emergence, dosage 80 g/ha
In short: as §2

AMARE [12] = experiment: Post-emergence action against AMARE; assay type: in vivo, Amaranthus retroflexus; settings: post-emergence, dosage 80 g/ha, visual assessment about 3 weeks after treatment vs untreated controls
In short: as §2

ALOMY [13] = experiment: Pre-emergence action against ALOMY; assay type: in vivo, Alopecurus myosuroides; settings: dosage 320 g/ha; pre-emergence; scored visually after 3 weeks vs untreated controls; 100% = plants have died, 0% = like control plants
In short: as §1

VIOTR [14] = experiment: Pre-emergence action against VIOTR; assay type: in vivo, Viola tricolor; settings: Dosage 320 g/ha, pre-emergence
In short: as §1

DIGSA [15] = experiment: Post-emergence action against DIGSA; assay type: in vivo, Digitaria sanguinalis; settings: dosage 80 g/ha, visual assessment about 3 weeks after treatment vs untreated controls
Experimental: Seeds of monocotyledonous and dicotyledonous weed and crop plants are laid out in sandy loam soil in wood-fiber pots, covered with soil and cultivated in a greenhouse under good growth conditions. 2 to 3 weeks after sowing, the test plants are treated at the one-leaf stage. The compounds of the invention, formulated in the form of wettable powders (WP) or as emulsion concentrates (EC), are then sprayed onto the green parts of the plants in the form of an aqueous suspension or emulsion at a water application rate equating to […], with addition of 0.2% wetting agent. After the test plants have been left to stand in the greenhouse under optimal growth conditions for about 3 weeks, the action of the preparations is assessed visually in comparison to untreated controls (herbicidal action in percent (%): 100% activity=the plants have died, 0% activity=like control plants). […] At the same time, inventive compounds leave Gramineae crops such as barley, wheat, rye, millet/Sorghum, corn or rice virtually undamaged when applied post-emergence, even at high active ingredient dosages. In addition, some substances are also harmless to dicotyledonous crops such as soya, cotton, oilseed rape, sugar beet or potatoes. Some of the compounds according to the invention have high selectivity and are therefore suitable for controlling unwanted vegetation in agricultural crops by the post-emergence method. The data of Tables B18 to B34 below illustrate, in an exemplary manner, the […] herbicidal action of the compounds according to the invention, the herbicidal activity being stated in percent.

VIOTR [16] = experiment: Post-emergence action against VIOTR; assay type: in vivo, Viola tricolor; settings: post-emergence, dosage 80 g/ha
In short: as §2

STEME [17] = experiment: Pre-emergence action against STEME; assay type: in vivo, Stellaria media; settings: Dosage 320 g/ha, pre-emergence
In short: as §1

ECHCG [18] = experiment: Pre-emergence action against ECHCG; assay type: in vivo, Echinochloa crus-galli; settings: pre-emergence, dosage 320 g/ha, scored visually after 3 weeks vs untreated controls
In short: as §1

PHBPU [19] = experiment: Pre-emergence action against PHBPU; assay type: in vivo, Pharbitis purpurea; settings: Dosage 320 g/ha, pre-emergence
In short: as §1

SETVI [20] = experiment: Post-emergence action against SETVI; assay type: in vivo, Setaria viridis; settings: post-emergence, dosage 80 g/ha, visual assessment about 3 weeks after treatment vs untreated controls
In short: as §2

VERPE [21] = experiment: Post-emergence action against VERPE; assay type: in vivo, Veronica persica; settings: dosage 80 g/ha
In short: as §2

ALOMY [22] = experiment: Post-emergence action against ALOMY; assay type: in vivo, Alopecurus myosuroides; settings: Dosage 80 g/ha, post-emergence
In short: as §2

AVEFA = experiment: Pre-emergence action against AVEFA; assay type: in vivo, Avena fatua; settings: dosage 320 g/ha, scored visually after 3 weeks vs untreated controls
In short: as §1

| SMILES | SETVI (Table B8, pre-emergence herbicidal activity) (SETVI [1]) | Pre-emergence action against VERPE (VERPE [2]) | Post-emergence action against POLCO (POLCO) | Post-emergence action against MATIN (herbicidal action in percent) (MATIN [3]) | Pre-emergence action against MATIN (MATIN [4]) | Post-emergence action against ABUTH (herbicidal action in percent) (ABUTH [5]) | Post-emergence action against STEME (STEME [6]) | Pre-emergence action against AMARE (herbicidal activity) (AMARE [7]) | Pre-emergence action against DIGSA (herbicidal activity) (DIGSA [8]) | Post-emergence action against ECHCG (herbicidal action in percent) (ECHCG [9]) | Pre-emergence action against ABUTH (herbicidal activity) (ABUTH [10]) | Post-emergence action against PHBPU (PHBPU [11]) | Post-emergence action against AMARE (herbicidal action in percent) (AMARE [12]) | Pre-emergence action against ALOMY (herbicidal activity in percent) (ALOMY [13]) | Pre-emergence action against VIOTR (VIOTR [14]) | Post-emergence action against DIGSA (herbicidal action in percent) (DIGSA [15]) | Post-emergence action against VIOTR (VIOTR [16]) | Pre-emergence action against STEME (STEME [17]) | Pre-emergence action against ECHCG (herbicidal activity) (ECHCG [18]) | Pre-emergence action against PHBPU (PHBPU [19]) | further results |
| --- | --- | --- | --- | --- | --- | --- | --- | --- | --- | --- | --- | --- | --- | --- | --- | --- | --- | --- | --- | --- | --- |
| CCn1nnnc1NC(=O)c1ccc(C(F)(F)F)c(C(=O)C2CCC2)c1Cl [2-153] | 100% | 100% | 80 | 100% | 100% | 100% | 100 | 100% | 100% | 90% | 100% | 80 | 90% | 90% | 100% | 100% | 90 | 90% |  |  |  |
| CCn1nnnc1NC(=O)c1ccc(C(F)(F)F)c(C(=O)C(F)F)c1Cl [2-163] | 100% |  |  | 90% | 100% | 90% | 100 | 100% | 90% | 90% | 100% | 90 | 100% |  | 100% | 100% | 100 | 100% | 90% | 100% | Post-emergence action against SETVI (herbicidal action in percent) (SETVI [20]): 80% |
| Cn1nnnc1NC(=O)c1ccc(C(F)(F)F)c(C(=O)C2CCCC2)c1Cl [1-154] | 80% | 90% |  | 80% | 100% | 90% | 90 | 100% | 100% |  | 100% | 80 | 90% |  | 100% | 80% | 80 | 100% | 100% |  | Post-emergence action against VERPE (VERPE [21]): 80 |
| CCCC(=O)c1c(C(F)(F)F)ccc(C(=O)Nc2nnnn2CCC)c1C [3-16] | 100% | 100% | 90 | 90% | 100% | 100% | 90 | 100% | 90% | 90% | 100% | 90 | 100% | 80% | 90% | 90% | 80 | 100% | 90% | 80% | Post-emergence action against ALOMY (ALOMY [22]): 80%; Post-emergence action against VERPE (VERPE [21]): 80; Post-emergence action against SETVI (herbicidal action in percent) (SETVI [20]): 90%; Pre-emergence action against AVEFA (herbicidal activity) (AVEFA): 80% |
| CCn1nnnc1NC(=O)c1ccc(C(F)(F)F)c(C(=O)C2CCC2)c1SC [2-284] | 100% | 100% | 80 | 90% | 100% | 100% | 100 | 100% | 100% | 90% | 100% | 90 | 100% | 90% | 100% | 90% | 80 | 100% | 100% | 80% | Post-emergence action against VERPE (VERPE [21]): 80; Post-emergence action against SETVI (herbicidal action in percent) (SETVI [20]): 100%; Pre-emergence action against AVEFA (herbicidal activity) (AVEFA): 90% |
| CCCn1nnnc1NC(=O)c1ccc(C(F)(F)F)c(C(=O)C2CCC2)c1SC [3-280] | 100% |  |  | 90% | 90% | 100% | 100 | 100% | 100% | 80% | 100% | 80 | 100% |  | 100% | 80% | 80 | 100% | 80% |  |  |
| CCCn1nnnc1NC(=O)c1ccc(C(F)(F)F)c(C(=O)C2CCC2)c1Cl [3-153] | 80% |  |  | 100% | 90% | 100% | 100 | 100% | 100% |  | 100% |  | 100% |  | 100% | 80% |  |  |  |  |  |

From patent US11051515B2, “3-acyl-benzamides and their use as herbicides” (Bayer Aktiengesellschaft, priority 2017, dated 2021)
